Results published in EP3454861B1, “BENZOXAZINE OR QUINAZOLINE DERIVATIVES FOR USE IN THE TREATMENT OF ALZHEIMER'S DISEASE” (Biocodex, priority 2016, dated 2017).

How the values were obtained:
[1] = system: modèle murin de maladie d'Alzheimer par administration du peptide amyloïde β25-35; assay: Passive avoidance test (long-term contextual memory), retention session, Aβ25-35 mouse model; assay type: in vivo, souris; conditions: Aβ25-35 9 nmol ICV, day 10
Source text: Le 1^er jour : une version « mélangée » (scrambled) du peptide amyloïde β25-35 (Sc.Aβ, témoin négatif) ou le peptide amyloïde β25-35 (Aβ25-35) est injecté par voie intra-cérébroventriculaire (ICV) (le peptide Aβ25-35 provoque l'intoxication cellulaire). Entre le 1^er jour et le 10^ème jour, les traitements sont administrés une fois par jour par voie intrapéritonéale (IP).

neurones corticaux = assay: Oxidative stress (MetO-positive neurons) in cortical neurons after Aβ1-42; assay type: cell-based, rats; conditions: Rattus norvegicus, Cortical neurone, Aβ1-42 1,25 µM, 4 h (Aβ1-42 alone 136.98%), read-out: nombre de neurones positifs à MetO
Procedure: Des neurones corticaux de rats sont mis en culture comme dans la méthode décrite par Singer (1999) J. Neurosci. 19:2455-2463. Des rats femelles enceintes de 15 jours sont tuées par dislocation des cervicales (Rats Wistar, Janvier) et le fœtus est retiré de l'utérus. Les cortex sont prélevés et placés dans un milieu glacé de Leibovitz (L15, Panbiotech, Réf : P04-27055, lot : 9310614) contenant 2% de pénicilline (10 000 U/ml) et de streptomycine (10 mg/ml) (PS, Panbiotec, Réf : P06-07100, lot : 48101114) et 1% de sérum-albumine bovine (BSA, Panbiotech, Réf : P06-1391100, lot : H140603). Les cortex sont dissociés par trypsination (0,05% Panbiotech, Réf : P10-023100, lot : 5890314) pendant 20 minutes à 37°C. La réaction est stoppée par addition d'un milieu Eagle modifié de Dulbecco (DMEM, Panbiotech, réf P04-03600, lot : 9670913) contenant de la DNase I grade Il (0,1 mg/ml Panbiotech, Réf : P60-37780100, lot : H140508) et 10 % de sérum de veau fœtal (FCS, Invitrogen, Réf : 10270 à 098, lot : 41Q4120K). Les cellules sont dissociées mécaniquement par 3 passages à travers une pipette de 10 ml. Les cellules sont ensuite centrifugées à 515 g pendant 10 minutes à 4°C. […]

CCNC1=Nc2ccc(Cl)cc2C(C)(c2ccccc2)O1 (centres unmarked) [Etifoxine, chlorhydratede 6-chloro-2-éthylamino-4-méthyl-4-phényl-4H-[3,1]benzoxazine]
temps de fuite lors de la session de rétention, Moyenne ([1]; Etifoxine 25 mg/kg IP once daily): 22,4 ± 2,4% | temps de fuite lors de la session de rétention, Moyenne ([1]; Etifoxine 50 mg/kg IP once daily): 21,6 ± 3,0% | temps de latence lors la session de rétention, Moyenne ([1]; Etifoxine 12,5 mg/kg IP once daily): 208,1 ± 17,4% | activity at 3 µM (neurones corticaux; étifoxine 3 µM): 108% | activity at 10 µM (neurones corticaux; étifoxine 10 µM): 103%
